Source: US6184388A, “Substituted aminocycloalkylpyrrolidine derivatives and cis-substituted aminocycloalkylpyrrolidine derivatives” (Daiichi Pharmaceutical Co., Ltd., priority 1995, dated 2001)
In brackets after ≈: the same amount, converted by molar mass. Where a name gives a salt, the structure may show the parent alone.

Columns and labels:
[1] = tested on: Slc:ddy five week male mice; test: acute toxicity, intravenous, mice; type: in vivo; settings: for acute toxicity result compared with the table above: stated in words
Protocol: A solution of 5-amino-7-[4-(R)-(1-aminocyclopropyl)-3-(S)-fluoro-1-pyrrolidinyl]-6-fluoro-1-[2-(S)-fluoro-1-(R)-cyclopropyl]-1,4-dihydro-8-methyl-4-oxoquinoline-3-carboxylic acid (abbreviated as cis) hydrochloride of Example 15 or 5-amino-7-[4-(R)-(1-aminocyclopropyl)-3-(R)-fluoro-1-pyrrolidinyl]-6-fluoro-1-[2-(S)-fluoro-1-(R)-cyclopropyl]-1,4-dihydro-8-methyl-4-oxoquinoline-3-carboxylic acid (abbreviated as trans) hydrochloride in distilled water for injection was administered intravenously to Slc:ddy five week male mice (five mice per group) and the symptoms are observed.

[2] = tested on: Ps. maltophilia, IID-1275; test: antimicrobial activity (MIC), standard method of the Japan Society of Chemotherapy; type: cell-based; settings: for MIC: Stenotrophomonas maltophilia, IID1275, IID-1275 (Table 5: X. maltophilia, IID-1275), read-out: minimum inhibitory concentration (MIC)
Protocol: (§1) Examples of the first and second aspects of the present invention are given below by way of illustration and not by way of limitation. In this regard, the antibacterial and antimicrobial activities of the compounds of interest were measured in accordance with the standard method specified by the Japan Society of Chemotherapy. The results are shown in Tables 1 to 5 as a minimum inhibitory concentration (MIC, μg/ml). Unless otherwise indicated, all percents (%) are by weight.

E. coli, NIHJ = test: as above; type: cell-based; settings: Escherichia coli, read-out: minimum inhibitory concentration (MIC)
Protocol: as §1

[3] = 150 mg/kg, *: died immediately after administration, test stopped when second mouse died

Row | Structure (SMILES) | acute toxicity result compared with the table above ([1]; 150 mg/kg) | MIC [2] | further results
1 | Cc1c(N2C[C@@H](CO)[C@@H](C3(N)CC3)C2)c(F)c(N)c2c(=O)c(C(=O)O)cn(C3CC3)c12 (relative stereo) [Example 14, 5-Amino-7-[cis-4-(1-aminocyclopropyl)-3-hydroxymethyl-1-pyrrolidinyl]-1-cyclopropyl-6-fluoro-1,4-dihydro-8-methyl-4-oxoguinoline-3-carboxylic acid] | same result | – | –
2 | Cc1c(N2C[C@@H](F)[C@@H](C3(N)CCC3)C2)c(F)c(N)c2c(=O)c(C(=O)O)cn([C@@H]3C[C@@H]3F)c12 (single isomer, unassigned; isomer b) [Example 13] | same result | – | minimum inhibitory concentration (MIC) ([2]; IID-1275 (Table 5: X. maltophilia, IID-1275)): 0.20 µg/mL (≈ 0.444 µM)
3 | Cc1c(N2C[C@H](F)[C@@H](C3(N)CC3)C2)c(F)c(N)c2c(=O)c(C(=O)O)cn([C@@H]3C[C@@H]3F)c12 [Example 5, 5-Amino-7-[4-(R)-(1-aminocyclopropyl)-3-(R)-fluoro-1-pyrrolidinyl]-6-fluoro-1-[2-(S)-fluoro-1-(R)-cyclopropyl]-1,4-dihydro-8-methyl-4-oxoquinoline-3-carboxylic acid hydrochloride] | – | – | Number of death ([1]; 50 mg/kg): 0/5; Number of death ([1]; 100 mg/kg, *: died immediately after administration, test stopped when second mouse died): 2/2; Number of death [1, 3]: 2/2
4 | COc1c(N2C[C@@H](F)[C@@H](C3(N)CC3)C2)c(F)cc2c(=O)c(C(=O)O)cn([C@@H]3C[C@@H]3F)c12 [Example 12, 7-[4-(R)-(1-Aminocyclopropyl)-3-(S)-fluoro-1-pyrrolidinyl]-6-fluoro-1-[2-(S)-fluoro-1-(R)-cyclopropyl]-1,4-dihydro-8-methoxy-4-oxoguinoline-3-carboxylic acid] | same result | – | MIC (E. coli, NIHJ): ≤ 0.013 µg/mL
5 | Cc1c(N2C[C@@H](F)[C@@H](C3(N)CC3)C2)c(F)c(N)c2c(=O)c(C(=O)O)cn([C@@H]3C[C@@H]3F)c12 [Example 15, 5-Amino-7-[4-(R)-(1-aminocyclopropyl)-3-(S)-fluoro-1-pyrrolidinyl]-6-fluoro-1-[2-(S)-fluoro-1-(R)-cycloproyl]-1,4-dihydro-8-methyl-4-oxoguinoline-3-carboxylic acid hydrochloride] | – | 0.05 µg/mL | Number of death [1, 3]: 0/5
6 | COc1c(N2C[C@@H](F)[C@@H](C3(N)CC3)C2)c(F)c(N)c2c(=O)c(C(=O)O)cn([C@@H]3C[C@@H]3F)c12 [Example 16, 5-Amino-7-[4-(R)-(1-aminocyclopropyl)-3-(S)-fluoro-1-pyrrolidinyl]-6-fluoro-1-[2-(S)-fluoro-1-(R)-cyclopropyl]-1,4-dihydro-8-methoxy-4-oxoquinoline-3-carboxylic acid] | same result | 0.2 µg/mL (≈ 0.442 µM) | –
7 | C[C@H]1COc2c(N3C[C@@H](F)[C@@H](C4(N)CC4)C3)c(F)cc3c(=O)c(C(=O)O)cn1c23 [Example 17, 10-[4-(R)-(1-Aminocyclopropyl)-3-(S)-fluoro-1-pyrrolidinyl]-9-fluoro-2,3-dihydro-3-(S)-methyl-7-oxo-7H-pyrido[1,2,3-de][1,4]benzoxazine-6-carboxylic acid] | same result | – | –
8 | C[C@H]1COc2c(N3C[C@@H](F)[C@@H](C4(N)CC4)C3)c(F)cc3c(=O)c(C(=O)O)cn1c23.Cl [Example 19, 10-[4-(R)-(1-Aminocyclopropyl)-3-(S)-fluoro-1-pyrrolidinyl]-9-fluoro-2,3-dihydro-3-(S)-methyl-7-oxo-7H-pyrido[1,2,3-de][1,4]benzoxazine-6-carboxylic acid hydrochloride] | – | 0.39 µg/mL | –
9 | C[C@H]1COc2c(N3C[C@@H](F)[C@@H](C4(N)CC4)C3)c(F)c(N)c3c(=O)c(C(=O)O)cn1c23 [Example 21, 8-Amino-10-[4-(R)-(1-aminocyclopropyl)-3-(S)-fluoro-1-pyrrolidinyl]-9-fluoro-2,3-dihydro-3-(S)-methyl-7-oxo-7H-pyrido[1,2,3]-de[1,4]benzoxazine-6-carboxylic acid] | same result | 0.39 µg/mL (≈ 0.928 µM) | –
